From US20100317647A1 (priority 2009, published 2010)

These compounds were tested against human Cat S (Homo sapiens, UniProt P25774) (assay: Cathepsin enzyme inhibition assay (fluorogenic peptide substrate cleavage)). Conditions: human Cat S 1 nM; substrate Z-Val-Val-Arg-AMC 20 μM; pH 6.5; fluorescence over 20 minutes.
Sequence of human Cat S (P25774 115-331): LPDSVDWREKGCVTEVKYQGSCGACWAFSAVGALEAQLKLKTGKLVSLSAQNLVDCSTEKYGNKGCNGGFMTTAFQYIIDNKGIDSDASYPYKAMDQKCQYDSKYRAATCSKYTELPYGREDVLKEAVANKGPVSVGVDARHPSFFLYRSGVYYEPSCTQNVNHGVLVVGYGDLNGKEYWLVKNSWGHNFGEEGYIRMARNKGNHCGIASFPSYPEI
Assay type: biochemical
Experimental: Cathepsin Enzyme Inhibition Assay
Enzyme activity is measured by observing the increase in fluorescence intensity caused by cleavage of a peptide substrate containing a fluorophore whose emission is quenched in the intact peptide.
Assay buffer: 100 mM potassium phosphate pH 6.5, EDTA-Na 5 mM, Triton X-100 0.001%, DTT 5 mM. Enzymes (all at 1 nM): human and mouse Cathepsin S, Cat K, Cat B, Cat L. Substrate (20 μM): Z-Val-Val-Arg-AMC, except for Cat K which uses Z-Leu-Arg-AMC (both from Bachem).
AMC=7-Amino-4-Methyl-Coumarin.
DTT=dithiothreitol. Final volume: 100 μL.
Excitation 360 nm, Emission 465 nm.
Enzyme is added to the substance dilutions in 96-well microtitre plates and the reaction is started with substrate. Fluorescence emission is measured over 20 minutes, during which time a linear increase is observed in the absence of inhibitor. IC50 are calculated by standard methods. Inhibition of human Cat S, mouse Cat S, human Cat K, mouse Cat K, human Cat B, mouse Cat B, human Cat L and mouse Cat L have been measured separately. The results obtained for human Cat S are expressed in the following table.
Compound CO[C@@H]1C[C@H](S(=O)(=O)c2ccc(N3CCCCC3)cc2Cl)C[C@H]1C(=O)NC1(C#N)CC1 (racemic) [Example 64, (1R,2R,4R) and (1S,2S,4S)-4-(2-Chloro-4-piperidin-1-yl-benzenesulfonyl)-2-methoxy-cyclopentanecarboxylic acid (1-cyano-cyclopropyl)-amide] has an IC50 of 12 nM.
CO[C@@H]1C[C@H](S(=O)(=O)c2ccc(OCC(F)(F)F)cc2Cl)C[C@H]1C(=O)NC1(C#N)CC1 (racemic) [Example 65, (1R,2R,4R) and (1S,2S,4S)-4-[2-Chloro-4-(2,2,2-trifluoro-ethoxy)-benzenesulfonyl]-2-methoxy-cyclopentanecarboxylic acid (1-cyano-cyclopropyl)-amide] gave an IC50 of 8 nM.
Work on CO[C@@H]1C[C@H](S(=O)(=O)c2ccc(-c3cnn(C)c3)cc2C(F)(F)F)C[C@H]1C(=O)NC1(C#N)CC1 (racemic) [Example 66, (1R,2R,4R) and (1S,2S,4S)-2-Methoxy-4-[4-(1-methyl-1H-pyrazol-4-yl)-2-trifluoromethyl-benzenesulfonyl]-cyclopentanecarboxylic acid (1-cyano-cyclopropyl)-amide] yielded an IC50 of 0.7 nM.
In the case of CO[C@@H]1C[C@H](S(=O)(=O)c2ccc(-c3cc(C)nn3C)cc2C(F)(F)F)C[C@H]1C(=O)NC1(C#N)CC1 (racemic) [Example 67, (1R,2R,4R) and (1S,2S,4S)-4-[4-(2,5-Dimethyl-2H-pyrazol-3-yl)-2-trifluoromethyl-benzenesulfonyl]-2-methoxy-cyclopentanecarboxylic acid (1-cyano-cyclopropyl)-amide], the IC50 is reported as 0.6 nM.
Compound CO[C@@H]1C[C@H](S(=O)(=O)c2ccc(-c3ccnn3C)cc2C(F)(F)F)C[C@H]1C(=O)NC1(C#N)CC1 (racemic) [Example 72, (1R,2R,4R) and (1S,2S,4S)-2-Methoxy-4-[4-(1-methyl-1H-pyrazol-5-yl)-2-trifluoromethyl-benzenesulfonyl]-cyclopentanecarboxylic acid (1-cyano-cyclopropyl)-amide] has an IC50 of 1.2 nM.
In the case of CO[C@@H]1C[C@H](S(=O)(=O)c2ccc(-c3cc[nH]n3)cc2C(F)(F)F)C[C@H]1C(=O)NC1(C#N)CC1 (racemic) [Example 73, (1R,2R,4R) and (1S,2S,4S)-2-Methoxy-4-[4-(1H-pyrazol-3-yl)-2-trifluoromethyl-benzenesulfonyl]-cyclopentanecarboxylic acid (1-cyano-cyclopropyl)-amide], the IC50 is reported as 1 nM.
In the case of CO[C@@H]1C[C@H](S(=O)(=O)c2ccc(-c3ccc(F)c(F)c3)cc2C(F)(F)F)C[C@H]1C(=O)NC1(C#N)CC1 (racemic) [Example 74, (1R,2R,4R) and (1S,2S,4S)-4-(3′,4′-Difluoro-3-trifluoromethyl-biphenyl-4-sulfonyl)-2-methoxy-cyclopentanecarboxylic acid (1-cyano-cyclopropyl)-amide], the IC50 is reported as 0.7 nM.
Compound CO[C@@H]1C[C@H](S(=O)(=O)c2ccc(-c3ccc(S(C)(=O)=O)cc3)cc2C(F)(F)F)C[C@H]1C(=O)NC1(C#N)CC1 (racemic) [Example 75, (1R,2R,4R) and (1S,2S,4S)-4-(4′-Methanesulfonyl-3-trifluoromethyl-biphenyl-4-sulfonyl)-2-methoxy-cyclopentanecarboxylic acid (1-cyano-cyclopropyl)-amide] has an IC50 of 0.5 nM.
In the case of CO[C@@H]1C[C@H](S(=O)(=O)c2ccc(-c3ccc(S(N)(=O)=O)cc3)cc2C(F)(F)F)C[C@H]1C(=O)NC1(C#N)CC1 (racemic) [Example 76, (1R,2R,4R) and (1S,2S,4S)-2-Methoxy-4-(4′-sulfamoyl-3-trifluoromethyl-biphenyl-4-sulfonyl)-cyclopentanecarboxylic acid (1-cyano-cyclopropyl)-amide], the IC50 is reported as 0.6 nM.
In the case of CO[C@@H]1C[C@H](S(=O)(=O)c2ccc(-c3ccnc(C)c3)cc2C(F)(F)F)C[C@H]1C(=O)NC1(C#N)CC1 (racemic) [Example 77, (1R,2R,4R) and (1S,2S,4S)-2-Methoxy-4-[4-(2-methyl-pyridin-4-yl)-2-trifluoromethyl-benzenesulfonyl]-cyclopentanecarboxylic acid (1-cyano-cyclopropyl)-amide], the IC50 is reported as 0.6 nM.
Compound COc1ccc(-c2ccc(S(=O)(=O)[C@H]3C[C@@H](OC)[C@H](C(=O)NC4(C#N)CC4)C3)c(C(F)(F)F)c2)cn1 (racemic) [Example 78, (1R,2R,4R) and (1S,2S,4S)-2-Methoxy-4-[4-(6-methoxy-pyridin-3-yl)-2-trifluoromethyl-benzenesulfonyl]-cyclopentanecarboxylic acid (1-cyano-cyclopropyl)-amide] has an IC50 of 0.3 nM.
Compound N#CCNC(=O)[C@H]1CC[C@H](S(=O)(=O)c2ccc(F)cc2Cl)C1 (racemic) [Example 79, (1S,3S) and (1R,3R)-3-(2-Chloro-4-fluoro-benzenesulfonyl)-cyclopentanecarboxylic acid cyanomethyl-amide] has an IC50 of 683 nM.
Work on C[C@H](Oc1ccc(S(=O)(=O)[C@H]2CC[C@H](C(=O)NCC#N)C2)c(Cl)c1)C(F)(F)F (racemic) [Example 80, (1S,3S)-3-[2-Chloro-4-(2,2,2-trifluoro-1-methyl-ethoxy)-benzenesulfonyl]-cyclopentanecarboxylic acid cyanomethyl-amide (epimeric mixture of racemate)] yielded an IC50 of 1030 nM.
Compound CO[C@@H]1C[C@H](S(=O)(=O)c2ccc(-c3ccc(C)nc3)cc2C(F)(F)F)C[C@H]1C(=O)NC1(C#N)CC1 (racemic) [Example 81, (1R,2R,4R) and (1S,2S,4S)-2-Methoxy-4-[4-(6-methyl-pyridin-3-yl)-2-trifluoromethyl-benzenesulfonyl]-cyclopentanecarboxylic acid (1-cyano-cyclopropyl)-amide] has an IC50 of 0.6 nM.
CO[C@@H]1C[C@H](S(=O)(=O)c2ccc(-c3cncnc3)cc2C(F)(F)F)C[C@H]1C(=O)NC1(C#N)CC1 (racemic) [Example 82, (1R,2R,4R) and (1S,2S,4S)-2-Methoxy-4-(4-pyrimidin-5-yl-2-trifluoromethyl-benzenesulfonyl)-cyclopentanecarboxylic acid (1-cyano-cyclopropyl)-amide] showed an IC50 of 0.6 nM.
Work on CO[C@@H]1C[C@H](S(=O)(=O)c2ccc(-c3cncc(S(C)(=O)=O)c3)cc2C(F)(F)F)C[C@H]1C(=O)NC1(C#N)CC1 (racemic) [Example 83, (1R,2R,4R) and (1S,2S,4S)-4-[4-(5-Methanesulfonyl-pyridin-3-yl)-2-trifluoromethyl-benzenesulfonyl]-2-methoxy-cyclopentanecarboxylic acid (1-cyano-cyclopropyl)-amide] yielded an IC50 of 0.2 nM.
With CO[C@@H]1C[C@H](S(=O)(=O)c2ccc(-c3cncc(F)c3)cc2C(F)(F)F)C[C@H]1C(=O)NC1(C#N)CC1 (racemic) [Example 84, (1R,2R,4R) and (1S,2S,4S)-4-[4-(5-Fluoro-pyridin-3-yl)-2-trifluoromethyl-benzenesulfonyl]-2-methoxy-cyclopentanecarboxylic acid (1-cyano-cyclopropyl)-amide] the IC50 was 0.7 nM.
Work on CO[C@@H]1C[C@H](S(=O)(=O)c2ccc(-c3cncc(C)c3)cc2C(F)(F)F)C[C@H]1C(=O)NC1(C#N)CC1 (racemic) [Example 85, (1R,2R,4R) and (1S,2S,4S)-2-Methoxy-4-[4-(5-methyl-pyridin-3-yl)-2-trifluoromethyl-benzenesulfonyl]-cyclopentanecarboxylic acid (1-cyano-cyclopropyl)-amide] yielded an IC50 of 0.5 nM.
In the case of COc1cncc(-c2ccc(S(=O)(=O)[C@H]3C[C@@H](OC)[C@H](C(=O)NC4(C#N)CC4)C3)c(C(F)(F)F)c2)c1 (racemic) [Example 86, (1R,2R,4R) and (1S,2S,4S)-2-Methoxy-4-[4-(5-methoxy-pyridin-3-yl)-2-trifluoromethyl-benzenesulfonyl]-cyclopentanecarboxylic acid (1-cyano-cyclopropyl)-amide], the IC50 is reported as 0.5 nM.
For CO[C@@H]1C[C@H](S(=O)(=O)c2ccc(-c3cc(C)sc3C)cc2C(F)(F)F)C[C@H]1C(=O)NC1(C#N)CC1 (racemic) [Example 87, (1R,2R,4R) and (1S,2S,4S)-4-[4-(2,5-Dimethyl-thiophen-3-yl)-2-trifluoromethyl-benzenesulfonyl]-2-methoxy-cyclopentanecarboxylic acid (1-cyano-cyclopropyl)-amide], the IC50 was 0.2 nM.
CO[C@@H]1C[C@H](S(=O)(=O)c2ccc(-n3nc(C)ccc3=O)cc2Cl)C[C@H]1C(=O)NC1(C#N)CC1 (racemic) [Example 88, (1R,2R,4R) and (1S,2S,4S)-4-[2-Chloro-4-(3-methyl-6-oxo-6H-pyridazin-1-yl)-benzenesulfonyl]-2-methoxy-cyclopentanecarboxylic acid (1-cyano-cyclopropyl)-amide] showed an IC50 of 9.1 nM.
For COc1ccc(S(=O)(=O)[C@H]2C[C@@H](OC)[C@H](C(=O)NC3(C#N)CC3)C2)c(Cl)c1 (racemic) [Example 89, (1R,2R,4R) and (1S,2S,4S)-4-(2-Chloro-4-methoxy-benzenesulfonyl)-2-methoxy-cyclopentanecarboxylic acid (1-cyano-cyclopropyl)-amide], the IC50 was 7.4 nM.
With CO[C@@H]1C[C@H](S(=O)(=O)c2ccc(-c3cncc(Cl)c3)cc2C(F)(F)F)C[C@H]1C(=O)NC1(C#N)CC1 (racemic) [Example 90, (1R,2R,4R) and (1S,2S,4S)-4-[4-(5-Chloro-pyridin-3-yl)-2-trifluoromethyl-benzenesulfonyl]-2-methoxy-cyclopentanecarboxylic acid (1-cyano-cyclopropyl)-amide] the IC50 was 0.4 nM.
